According to patent publication US7033784B1, “Method of producing an erythroid cell which is undifferentiated yet capable of expressing a heterologous protein” (Syngenta Limited, priority 1999, dated 2006):

Columns and labels:
[1] = molecular target: T1, Locusta migratoria tyramine receptor (TyrLoc) (Locusta migratoria, UniProt Q25321); assay: cAMP measurements (Scintillation Proximity Assay) in MEL-TyrLoc cells; assay type: cell-based; details: for antagonism of the effect of TA on cAMP: 10 μM Fsk + 0.1 μM TA, yohimbine 100 nM to 1 nM, mianserin 10 nM, chlorpromazine 10 nM; for inhibition of forskolin-induced increase of cAMP: 10 μM Fsk + 1 nM to 10 μM TA, FIG. 6
T1 construct: The coding region of the TyrLoc cDNA was amplified by polymerase chain reaction (PCR) from pVJ12 and pVJ12-IEG; expressed in transfected cells
T1 sequence (Q25321 12-484): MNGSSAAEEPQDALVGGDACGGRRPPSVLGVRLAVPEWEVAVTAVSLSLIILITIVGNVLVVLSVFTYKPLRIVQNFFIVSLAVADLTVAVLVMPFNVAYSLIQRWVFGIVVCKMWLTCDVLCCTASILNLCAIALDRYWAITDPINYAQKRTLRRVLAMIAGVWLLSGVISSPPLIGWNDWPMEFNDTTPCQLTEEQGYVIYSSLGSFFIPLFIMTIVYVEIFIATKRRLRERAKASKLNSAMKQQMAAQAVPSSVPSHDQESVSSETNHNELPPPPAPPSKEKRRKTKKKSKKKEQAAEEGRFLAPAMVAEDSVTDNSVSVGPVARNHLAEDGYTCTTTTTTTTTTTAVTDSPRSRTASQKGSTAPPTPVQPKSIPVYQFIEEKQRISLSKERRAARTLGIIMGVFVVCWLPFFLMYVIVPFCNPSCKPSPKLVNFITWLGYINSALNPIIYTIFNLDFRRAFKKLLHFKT
Protocol: (§1) The effect of TA on the cAMP level of the transformed and untransformed cells was investigated. MEL-C88L and MEL-TyrLoc cells were seeded in 6-well plates to a density of 8.10^5 cells/well and allowed to attach. The cell medium was removed and, in different wells, replaced with different NCF buffer solutions as follows: • (i) NCF+1 μM tyramine (TA), • (ii) NCF+10 μM forskolin (Fsk), • (iii) NCF+10 μM Fsk+1 nM to 10 μM TA. where NCF comprised 135 mM NaCl, 5 mM KCl, 6 mM glucose, 0.62 mM MgCl2, 10 mM Hepes pH 7.4 4 mM CaCl2.
For the use of other ligands than TA, the solutions were: • (iv) NCF+10 μM Fsk+1 μM OA, • (v) NCF+10 μM Fsk+0.1 μM TA+100 nM to 1 nM yohimbine, • (vi) NCF+10 μM Fsk+0.1 μM TA+10 nM mianserin; and • (vii) NCF+10 μM Fsk+0.1 μM TA+10 nM chlorpromazine.
(§2) All solutions contained 200 μM […] (IBMX) in order to inhibit cAMP phosphodiesterase. In each study, triplicate wells were incubated with the same solution at 37° C. for exactly 30 min.
(§3) In order to extract the cAMP, 100% ice-cold ethanol was added to each well to a final concentration of 65%. After 5 min incubation at room temperature, the solution was removed from the wells which were then rinsed with 65% ethanol. The eluates from the same well were then pooled together and evaporated using a speedvac. cAMP was then measured using the Scintillation Proximity Assay (Amersham), according to the manufacturers recommended procedure. This experiment was done in triplicate.

[2] = molecular target: T1, Locusta migratoria tyramine receptor (TyrLoc); assay: Ca2+ measurements (fura-2) in uninduced MEL-TyrLoc cells; assay type: cell-based; details: for antagonism of the Ca2+ increase induced by TA: qualitative, data not shown for part
Protocol: (§4) Elevations in intracellular Ca^2+ in response to stimulation with ligands of the tyramine receptor were measured as follows. Since MEL cells loose the ability to signal on differentiation, and as receptor expression was readily detectable without induction of the MEL cells, uninduced MEL C88L cells of the invention were used.
(§5) Ca^2+ concentration was measured by using the acetoxymethyl (AM) ester of the fluorescent indicator fura-2 (Grynkiewicz G et al. (1985) J. Biol. Chem. 260 3440–3450). Cells were washed with NCF buffer (135 mM NaCl, 5 mM KCl, 6 mM glucose, 0.62 mM MgCl2.6H2O, 10 mM HEPES, pH 7.4 with 4 mM CaCl2) and resuspended at a concentration of 2.10^6 cells/ml in NCF buffer containing 2 μM fura-2-AM (Molecular Probes). After 1 hour incubation in the dark at 27° C., the cell suspension was subjected to centrifugation at 1200 rpm for 5 minutes, resuspended in an equal volume of NCF buffer and incubated for an additional 30 min in the dark. Aliquots were centrifuged as above and resuspended in 3 ml NCF buffer. Measurements of intracellular calcium were made fluorimetrically in a LS-50B Luminescence Spectrophotometer (Perkin-Elmer) in the presence and absence of the appropriate test chemical. Excitation wavelength alternated between 340 and 380 nm. The fluorescence intensity was monitored at an emission wavelength of 510 nm.

[3] = system: Untransformed MEL-C88L cells; assay: cAMP measurements (Scintillation Proximity Assay) in untransformed MEL-C88L cells; assay type: cell-based, Murine; details: 200 μM IBMX, FIG. 5
Protocol: as §1, §2, §3

[4] = system: Untransformed MEL-C88L cells; assay: Ca2+ measurements (fura-2) in untransformed MEL-C88L control cells; assay type: cell-based, Murine; details: concentrations as high as 100 μM TA
Protocol: as §4, §5

[5] = molecular target: Dopamine Receptor (D-Dop1) (Drosophila melanogaster, UniProt P41596); details: 10 μM dopamine, Clones C and 2, 1×10^6 cells/well, FIG. 7
Sequence of Dopamine Receptor (D-Dop1) (P41596 20-511): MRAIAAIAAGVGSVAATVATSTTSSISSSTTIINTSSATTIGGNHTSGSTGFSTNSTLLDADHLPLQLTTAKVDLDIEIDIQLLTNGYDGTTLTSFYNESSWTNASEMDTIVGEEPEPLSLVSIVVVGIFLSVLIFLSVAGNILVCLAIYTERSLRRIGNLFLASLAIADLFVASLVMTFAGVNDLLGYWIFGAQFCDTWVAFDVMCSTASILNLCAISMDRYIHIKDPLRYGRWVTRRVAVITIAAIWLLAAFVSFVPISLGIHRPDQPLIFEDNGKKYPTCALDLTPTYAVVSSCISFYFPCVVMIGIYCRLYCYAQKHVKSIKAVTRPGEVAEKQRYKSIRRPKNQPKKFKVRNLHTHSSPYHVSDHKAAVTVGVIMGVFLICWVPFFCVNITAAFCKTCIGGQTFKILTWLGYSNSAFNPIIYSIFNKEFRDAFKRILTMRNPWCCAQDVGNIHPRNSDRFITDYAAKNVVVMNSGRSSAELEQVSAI
Protocol: (§6) These cells were then transferred to 96-well microtitre plates a final concentrations of 2×10^5 cells/well and 1×10^6 cells/well. […] 2 replicates/clone/concentrations were set up.
(§7) After incubation for 5 hours at 37° C. in an atmosphere of 10% CO2, a chlorophenol red β-D-galactopyranoside (CPRG) solution was added. The solution comprised 11.4 mg CPRG (Boehringer), 500 μl 10× Z buffer, 75 μl 20% SDS, 5 ml H2O and 7 μl ercaptoethanol. 10× Z buffer consists of 0.47M Na2HPO4(2H2O), 0.4M NaH2PO4(2H2O), 0.1M KCI, 10 mM MgSO4(7H2O), adjusted to pH 7.0 with NaOH solution.

[6] = system: serotonin receptor; assay: β-galactosidase (CRE reporter) assay using serotonin clones of MEL C88L cells
Protocol: as §6, §7

[7] = yohimbine 0.1, 1 and 2.5 μM, FIG. 4

CN(C)CCCN1c2ccccc2Sc2ccc(Cl)cc21 [Chlorpromazine]
antagonism of the effect of TA on cAMP [1]: antagonistic effects | antagonism of the Ca2+ increase induced by TA [2]: clearly inhibited

C=C[C@@]1(C)CC(=O)[C@]2(O)[C@@]3(C)[C@@H](O)CCC(C)(C)[C@@H]3[C@H](O)[C@H](OC(C)=O)[C@@]2(C)O1 [Forskolin, forskolin]
increase of cAMP level ([3]; 10 μM forskolin with or without TA): more than 6 times

NCC(O)c1ccc(O)cc1 (centres unmarked) [OA, octopamine]
Ca2+ increase compared with TA ([2]; OA 0.5 μM versus TA 10 nM (50 times higher concentration), FIG. 3): much lesser extent than TA

NCCc1ccc(O)cc1 [TA, tyramine]
inhibition of forskolin-induced increase of cAMP ([1]; 200 μM IBMX): significantly inhibits | inhibition of forskolin-induced increase of cAMP ([1]; 200 μM IBMX, listed as tyramine): inhibition | TA concentration giving maximal response (cAMP inhibition) ([1]; 10 μM Fsk, 200 μM IBMX): 1 µM | TA concentration giving minimal response (cAMP inhibition) ([1]; 10 μM Fsk, 200 μM IBMX): 1 nM | decrease in cAMP production with 1 μM TA when compared to 1 μM OA ([1]; 10 μM Fsk, 200 μM IBMX): 4 fold | effect on cAMP level in untransformed cells ([3]; 1 μM TA, 30 min): did not result in any effect | Ca2+ response in untransformed cells [4]: no response | TA concentration giving maximal Ca2+ response ([2]; MEL-TyrLoc clone, FIG. 2): 1 µM | Ca2+ increase after addition of TA ([2]; MEL-TyrLoc clone, dose-response 0.01 μM upwards, FIG. 2): clear transient increase in Ca^2+ | activating concentrations lower than OA ([2]; TA versus OA as agonist of TyrLoc in MEL-TyrLoc cells (summary of Ca2+ and cAMP results)): 3–4 orders of magnitude

COC(=O)[C@@H]1[C@H]2C[C@H]3c4[nH]c5ccccc5c4CCN3C[C@@H]2CC[C@@H]1O [Yohimbine]
antagonism of the effect of TA on cAMP [1]: inhibited the effect of TA in a dose dependent manner | antagonism of the Ca2+ increase induced by TA [2]: strongest antagonist | antagonism of the Ca2+ increase induced by TA ([2]; listed as yohimbine): better receptor antagonist than chlorpromazine and mianserin | inhibition of the Ca2+ response to 0.5 μM TA [2, 7]: concentration-dependent inhibition | inhibition of the Ca2+ response to 5 μM TA [2, 7]: could not inhibit | inhibition of the Ca2+ response to 0.5 μM TA ([2]; yohimbine 0.1, 1 and 2.5 μM, FIG. 4, listed as yohimbin): inhibition

NCCc1ccc(O)c(O)c1 [dopamine]
absorbance at 570 nm (β-galactosidase, indicating cyclic AMP) with dopamine [5]: increase in absorbance at 570 nm

C[C@H](CCC(=O)O)C[C@H](C)C[C@H](C)C(=O)/C=C(\O)[C@H](C)C[C@H](C)C/C=C/[C@@H](C)[C@@H](O)[C@@H](C)[C@@H](O)C[C@@H]1CC[C@@](C)([C@H]2CC[C@@](C)([C@@H](C)O)O2)O1 [ionomycin]
intracellular Ca2+ concentration after ionophore ([2]; 2 μM ionomycin, check of fura-2 loading): large increase

CCN(CC)CCNC(=O)c1cc(Cl)c(N)cc1OC [metaclopramide]
effect on basal Ca2+ concentrations or on the response of the cells to TA ([2]; at concentrations below 20 μM): no detectable effect

CN1CCN2c3ccccc3Cc3ccccc3C2C1 (centres unmarked) [mianserin]
antagonism of the effect of TA on cAMP [1]: antagonistic effects | antagonism of the Ca2+ increase induced by TA [2]: clearly inhibited

c1ccc2c(CC3=NCCN3)cccc2c1 [naphazoline]
antagonism of the Ca2+ increase induced by TA [2]: weak antagonists

NCCc1c[nH]c2ccc(O)cc12 [serotonin]
forskolin stimulated cAMP in the presence of serotonin ([6]; forskolin and serotonin): decrease in forskolin stimulated cAMP | cyclic AMP signal with serotonin alone ([6]; serotonin alone): no effect

c1ccc(CC2=NCCN2)cc1 [tolazoline]
antagonism of the Ca2+ increase induced by TA [2]: weak antagonists
